Measurements reported in ChEMBL document CHEMBL4270632, “CD73 inhibition by purine cytotoxic nucleoside analogue-based diphosphonates” (Eur J Med Chem, 2018).
Calls of active or inactive are those of the source. No cut-off for these calls is given here.

Experiments:
RL = assay: Cytotoxicity against human RL cells assessed as decrease in cell viability after 72 hrs by MTT assay; assay type: cell-based
CCRF-CEM = assay: Cytotoxicity against human CCRF-CEM cells assessed as decrease in cell viability after 72 hrs by MTT assay; assay type: cell-based
HL-60 = assay: Cytotoxicity against human HL60 cells assessed as decrease in cell viability after 72 hrs by MTT assay; assay type: cell-based; settings: HL-60, 72 h
Granta = assay: Cytotoxicity against human Granta cells assessed as decrease in cell viability after 72 hrs by MTT assay; assay type: cell-based
5'-nucleotidase [1] = molecular target: T1, 5'-nucleotidase (Homo sapiens, UniProt P21589); assay: Inhibition of CD73 in human MDA-MB-231 cells assessed as reduction in conversion of AMP to adenosine incubated for 30 mins by malachite green reagent based assay; assay type: cell-based
T1 sequence (P21589 whole entry): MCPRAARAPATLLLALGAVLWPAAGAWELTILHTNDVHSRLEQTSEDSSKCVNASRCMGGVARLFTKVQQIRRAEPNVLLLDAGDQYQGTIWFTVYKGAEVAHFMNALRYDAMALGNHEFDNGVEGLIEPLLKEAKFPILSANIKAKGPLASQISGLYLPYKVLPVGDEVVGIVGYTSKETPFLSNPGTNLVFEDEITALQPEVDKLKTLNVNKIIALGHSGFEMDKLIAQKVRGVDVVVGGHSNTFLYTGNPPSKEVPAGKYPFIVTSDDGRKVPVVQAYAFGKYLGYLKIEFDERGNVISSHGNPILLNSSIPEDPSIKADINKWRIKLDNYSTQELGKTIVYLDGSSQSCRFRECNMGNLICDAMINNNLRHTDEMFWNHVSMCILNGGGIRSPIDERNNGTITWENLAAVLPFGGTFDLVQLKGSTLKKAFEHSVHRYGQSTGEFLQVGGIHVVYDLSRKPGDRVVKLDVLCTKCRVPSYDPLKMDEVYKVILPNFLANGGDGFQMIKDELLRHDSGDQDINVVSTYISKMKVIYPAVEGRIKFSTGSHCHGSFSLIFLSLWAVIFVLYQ

5'-nucleotidase [2] = molecular target: T1, 5'-nucleotidase; assay: Inhibition of CD73 in human NCI-H292 cells assessed as reduction in conversion of AMP to adenosine incubated for 30 mins by malachite green reagent based assay; assay type: cell-based
5'-nucleotidase [3] = molecular target: T1, 5'-nucleotidase; assay: Inhibition of recombinant CD73 (27 to 549 residues) (unknown origin) expressed in baculovirus infected Sf9 insect cells assessed as reduction in conversion of AMP to adenosine incubated for 1 min followed by AMP addition measured after 3.5 mins by malachite green reagent based assay

SMILES | IC50 (RL) [µM] | IC50 (CCRF-CEM) [µM] | IC50 (HL-60) [µM] | IC50 (Granta) [µM] | IC50 (5'-nucleotidase [1]) [µM] | IC50 (5'-nucleotidase [2]) [µM] | inhibition (5'-nucleotidase [3]) | IC50 (5'-nucleotidase [3]) [µM]
Nc1nc(Cl)nc2c1ncn2[C@@H]1O[C@H](CO)[C@@H](O)[C@@H]1F [CLOFARABINE] | 0.38 | 0.044 | 0.04 | 0.017 |  |  |  | 
Nc1nc(F)nc2c1ncn2[C@@H]1O[C@H](COP(=O)(O)CP(=O)(O)O)[C@@H](O)[C@@H]1O |  |  |  |  | 112 | 2.2 | Active | 
Nc1nc(Cl)nc2c1ncn2[C@H]1C[C@H](O)[C@@H](COP(=O)(O)CP(=O)(O)O)O1 |  |  |  |  | 147 | 2 | Active | 
Nc1nc(Cl)nc2c1ncn2[C@@H]1O[C@H](COP(=O)(O)CP(=O)(O)O)[C@@H](O)[C@@H]1F | > 300 | 50.6 | 49.4 | 39.5 | 3.2 | 0.24 |  | 0.18
Nc1ncnc2c1ncn2[C@@H]1O[C@H](COP(=O)(O)CP(=O)(O)O)[C@@H](O)[C@H]1O [PHOSPHOMETHYLPHOSPHONIC ACID ADENOSYL ESTER] |  |  |  |  | 21.4 | 23.6 |  | 3.8
